{"source": "patent US9097673B2", "about": "“Processes and kits for determining multi-drug resistance of cells” (ENZO LIFE SCIENCES, INC., priority 2010, dated 2015)", "key": {"[1]": {"tested_on": "CHO K1 cell line", "experiment": "Dye uptake flow cytometry MDR assay;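 for D-values Post Inhibitor Treatment (compared to uninhibited cells), CsA: flow cytometry of dye-loaded cells, Kolmogorov-Smirnov D value (0 to 1.0) comparing fluorescence with versus without inhibitor, made negative when the uninhibited control was brighter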;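 for D-values Post Inhibitor Treatment (compared to uninhibited cells), FTC: flow cytometry of dye-loaded cells, Kolmogorov-Smirnov D value (0 to 1.0) comparing fluorescence with versus without inhibitor, made negative when the uninhibited control was brighter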;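 for D-values Post Inhibitor Treatment (compared to uninhibited cells), MK-571: flow cytometry of dye-loaded cells, Kolmogorov-Smirnov D value (0 to 1.0) comparing fluorescence with versus without inhibitor, made negative when the uninhibited control was brighter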;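 for D-values Post Inhibitor Treatment (compared to uninhibited cells), Verapamil: flow cytometry of dye-loaded cells, Kolmogorov-Smirnov D value (0 to 1.0) comparing fluorescence with versus without inhibitor, made negative when the uninhibited control was brighter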", "format": "cell-based, hamster", "conditions": "for D-values, Cyclosporin A / D-values, Novobiocin / D-values, Probenecid / D-values, Verapamil / MAF, Cyclosporin A / MAF, Novobiocin / MAF, Probenecid / MAF, Verapamil: Fluo-8 AM probe, dye uptake", "protocol": "(§7) Concentrations of the modulators used in the experiments were non-toxic to the cells (based upon standard 3-(4,5-Dimethylthiazol-2-Yl)-2,5-Diphenyltetrazolium Bromide (MTT) testing, data not shown). Fluo-8™ was used in all experiments at 5 μM, and Rhod-4™—at 4 μM final concentrations.\n(§8) Cells were grown on tissue culture dishes and on the day of assay were trypsinized and washed twice with warm (37° C.) phosphate-buffered saline (PBS). Post-wash, the cells were re-suspended in warm phenol red indicator-free medium at a density of 1×10^6/ml. For each detection set, sixteen tubes (5 samples in triplicates plus non-stained control for background fluorescence) in numbered tubes each containing 5×10^5/cells (0.5 ml) were prepared. […] After incubation for 5 min at 37° C., 0.25 ml of warm medium with Fluo-8™ AM probe (5 μM final concentration) or Rhod-4™ AM probe (2 μM final concentration) was added to each tube excluding non-stained control that receives plain medium and cells were incubated for 30 min at 37° C. and analyzed immediately by flow cytometry. In the second set of the tubes, the reaction was stopped by rapid centrifugation (1 min) at relatively low speed (200×g). After wash with ice-cold PBS and discarding the supernatant, cells were re-suspended in 0.5 ml of ice-cold medium and kept on ice until flow cytometry analysis. The third set of cells simply was spun down (1 min, 200×g) to remove the excess of the probe, resuspended in ice-cold medium and kept on ice until flow cytometry analysis.\n(§9) Fluo-8™ dye fluorescence was measured in the FL1 channel, and Rhod-4™ dye fluorescence—in the FL2 channel."}, "[2]": {"tested_on": "HeLa cell line", "experiment": "Dye uptake flow cytometry MDR assay", "format": "cell-based, human", "conditions": "HeLa, dye uptake", "protocol": "as §7, §8, §9"}, "[3]": {"tested_on": "A549 cell line", "experiment": "Dye efflux flow cytometry MDR assay", "format": "cell-based, human", "set-up": "key to D-value, Verapamil / D-value, Novobiocin: KS D value, 0 to 1; negative if control brighter than sample", "conditions": "for D-value, +4° C.: kept on ice without inhibitor", "excerpt": "(§1) Kolmogorov-Smirnov statistics measures the difference between two distribution functions and generates a D value ranging between 0 and 1.0, with higher values indicating a greater difference between the distribution functions. The D value generated by the KS statistics was modified by ascribing a negative value if the fluorescence of a negative control (no inhibitor) was brighter than the fluorescence of the sample with inhibitor. The method was one of those recommended by the First International MDR1 Methods Detection Workshop (St. Jude Children's Research Hospital, Memphis, Tenn.).\n(§2) Cells were grown in tissue culture dishes and on the day of assay they were trypsinized and washed twice with ice-cold PBS. Post-wash, the cells were re-suspended in cold phenol red indicator-free medium at a density of 1×10^6/ml. For each detection set, eighteen tubes (6 tubes without inhibitor and 3 tubes for each inhibitor tested, in triplicates) each containing 2.5-5×10^5/cells were prepared. Cells were centrifuged at 200×g for 5 min, and after discarding supernatant, re-suspended at 1×10^6/ml in ice-cold indicator-free medium containing Fluo-8™ AM or Rhod-4™ AM probes. Additionally, an aliquot of non-stained cells was prepared for background fluorescence measurements. Cells were incubated with the probe(s) on ice for 60 min, than centrifuged at 200×g for 5 min. After discarding the supernatant, cells were either washed twice with PBS or simply were spun down to remove the excess of the probe and resuspended at 5×10^5 cells/sample in 0.5 ml of following solutions:\n(§3) 1. warm (37° C.) indicator-free medium containing vehicle only (3 tubes)\n(§4) 2. warm (37° C.) indicator-free medium containing inhibitor (3 tubes for each inhibitor tested)\n(§5) 3. ice-cold indicator-free medium (3 tubes)\n(§6) Tube sets 1 and 2 were immediately transferred to a water bath (37° C.) and incubated for 90 min. Tube set 3 was kept on ice. Post incubation, 4 ml of ice-cold indicator-free medium was added per tube, tubes were centrifuged at 200×g for 5 min, supernatant was discarded, and cell pellet was re-suspended in the cold indicator-free medium and centrifuged again. Finally, cells were re-suspended in 0.5 ml of cold indicator-free medium and maintained on ice until analysis. Alternatively, cells were analyzed without washing. Flow cytometry experiments were performed as described in Example 3."}, "[4]": {"tested_on": "HeLa cell line", "experiment": "Dye efflux flow cytometry MDR assay", "format": "cell-based, human", "set-up": "key to D-value, Verapamil / D-value, Novobiocin: KS D value, 0 to 1; negative if control brighter than sample", "conditions": "for D-value, +4° C.: kept on ice without inhibitor", "excerpt": "as §1, §2, §3, §4, §5, §6"}, "[5]": {"tested_on": "CHO K1, A549 and HeLa cells", "experiment": "MTT test of dye toxicity", "format": "cell-based", "conditions": "5 μM Fluo-8 AM, 3 h at 37° C.", "method": "Three model cell lines (CHO K1, A549 and HeLa cells) were seeded in 96 well plates (5×10^3 cells/well) and 24 h later were treated with the working concentrations of dyes (0.5 μM of Calcein AM, 5 μM of Fluo-8™ AM, 4 μM of Rhod-4™ AM) used in the MDR assay for 3 h at 37° C. Then reagents were removed and a standard MTT test was performed as described elsewhere [Mosmann T., J Immunol Methods 65(1-2):55-63 (1983)]. Viability was calculated as a ratio of OD595 for treated cells to the OD595 of untreated control cells (FIG. 4). […] Additionally, the concentration of Rhod-4™ AM can be decreased further for particularly sensitive cell lines."}, "[6]": {"conditions": "CHO K1, dual probes Fluo-8 AM (FL1) + Pheophorbide A (FL3)"}, "[7]": {"conditions": "CHO K1, dye uptake, average of three independent experiments (Table 10)"}, "[8]": {"conditions": "CHO K1, dye uptake, average of three representative experiments (Table 6)"}, "[9]": {"conditions": "CHO K1, dye uptake, representative experiment (Table 8)"}, "[10]": {"conditions": "average of three representative experiments (Table 6)"}, "[11]": {"conditions": "representative experiment (Table 8)"}, "[12]": {"conditions": "A549, dye efflux, representative experiment (Table 9)"}, "[13]": {"conditions": "Fluo-8 AM probe, dye efflux, A549, No Wash"}, "[14]": {"conditions": "Fluo-8 AM probe, dye efflux, A549, Wash"}, "[15]": {"conditions": "representative experiment (Table 9)"}}}
{"smiles": "CC(=O)OCOC(=O)CN(CC(=O)OCOC(C)=O)c1ccccc1OCCOc1cc(-c2c3ccc(=O)cc-3oc3cc(OCOC(C)=O)ccc23)ccc1N(CC(=O)OCOC(C)=O)CC(=O)OCOC(C)=O", "note": "[Fluo-8 ™ AM]", "values": [{"measurement": "D-values Post Inhibitor Treatment (compared to uninhibited cells), CsA", "setting": "[1]; [6]", "value": 0.94}, {"measurement": "D-values Post Inhibitor Treatment (compared to uninhibited cells), FTC", "setting": "[1]; [6]", "value": 0.56}, {"measurement": "D-values Post Inhibitor Treatment (compared to uninhibited cells), MK-571", "setting": "[1]; [6]", "value": 0.98}, {"measurement": "D-values Post Inhibitor Treatment (compared to uninhibited cells), Verapamil", "setting": "[1]; [6]", "value": 0.9}, {"measurement": "D-value, Cyclosporine A", "setting": "[1]; [7]", "value": 0.89}, {"measurement": "D-value, FTC", "setting": "[1]; [7]", "value": 0.28}, {"measurement": "D-value, MK-571", "setting": "[1]; [7]", "value": 0.95}, {"measurement": "D-value, Novobiocin", "setting": "[1]; [7]", "value": 0.68}, {"measurement": "D-value, Verapamil", "setting": "[1]; [7]", "value": 0.74}, {"measurement": "D-value, Fumitremorgan C", "setting": "[1]; [8]", "value": 0.48}, {"measurement": "D-value, Probenecid", "setting": "[1]; [8]", "value": 0.69}, {"measurement": "D-value, Verapamil", "setting": "[1]; [8]", "value": 0.84}, {"measurement": "D-value, Cyclosporine A", "setting": "[1]; [9]", "value": 0.96}, {"measurement": "D-value, Novobiocin", "setting": "[1]; [9]", "value": 0.78}, {"measurement": "D-value, Probenecid", "setting": "[1]; [9]", "value": 0.89}, {"measurement": "D-value, Verapamil", "setting": "[1]; [9]", "value": 0.83}, {"measurement": "D-values, Cyclosporin A", "setting": "[1]; No Wash", "value": 0.97}, {"measurement": "D-values, Novobiocin", "setting": "[1]; No Wash", "value": 0.98}, {"measurement": "D-values, Probenecid", "setting": "[1]; No Wash", "value": 0.9}, {"measurement": "D-values, Verapamil", "setting": "[1]; No Wash", "value": 0.81}, {"measurement": "MAF, Cyclosporin A", "setting": "[1]; No Wash", "value": 93.0}, {"measurement": "MAF, Novobiocin", "setting": "[1]; No Wash", "value": 93.5}, {"measurement": "MAF, Probenecid", "setting": "[1]; No Wash", "value": 85.4}, {"measurement": "MAF, Verapamil", "setting": "[1]; No Wash", "value": 77.6}, {"measurement": "D-values, Cyclosporin A", "setting": "[1]; Spin", "value": 0.94}, {"measurement": "D-values, Novobiocin", "setting": "[1]; Spin", "value": 0.97}, {"measurement": "D-values, Probenecid", "setting": "[1]; Spin", "value": 0.9}, {"measurement": "D-values, Verapamil", "setting": "[1]; Spin", "value": 0.76}, {"measurement": "MAF, Cyclosporin A", "setting": "[1]; Spin", "value": 91.5}, {"measurement": "MAF, Novobiocin", "setting": "[1]; Spin", "value": 92.4}, {"measurement": "MAF, Probenecid", "setting": "[1]; Spin", "value": 85.0}, {"measurement": "MAF, Verapamil", "setting": "[1]; Spin", "value": 73.0}, {"measurement": "D-values, Cyclosporin A", "setting": "[1]; Wash", "value": 0.94}, {"measurement": "D-values, Novobiocin", "setting": "[1]; Wash", "value": 0.94}, {"measurement": "D-values, Probenecid", "setting": "[1]; Wash", "value": 0.87}, {"measurement": "D-values, Verapamil", "setting": "[1]; Wash", "value": 0.76}, {"measurement": "MAF, Cyclosporin A", "setting": "[1]; Wash", "value": 91.6}, {"measurement": "MAF, Novobiocin", "setting": "[1]; Wash", "value": 91.3}, {"measurement": "MAF, Probenecid", "setting": "[1]; Wash", "value": 86.2}, {"measurement": "MAF, Verapamil", "setting": "[1]; Wash", "value": 73.5}, {"measurement": "D-value, Fumitremorgan C", "setting": "[2]; [10]", "value": 0.15}, {"measurement": "D-value, Probenecid", "setting": "[2]; [10]", "value": 0}, {"measurement": "D-value, Verapamil", "setting": "[2]; [10]", "value": 0.10}, {"measurement": "D-value, Cyclosporine A", "setting": "[2]; [11]", "value": 0.14}, {"measurement": "D-value, Novobiocin", "setting": "[2]; [11]", "value": 0.09}, {"measurement": "D-value, Probenecid", "setting": "[2]; [11]", "value": 0.15}, {"measurement": "D-value, Verapamil", "setting": "[2]; [11]", "value": 0.04}, {"measurement": "D-value, 4° C.", "setting": "[3]; A549, dye efflux, kept on ice without inhibitor (Table 9)", "value": 0.80}, {"measurement": "D-value, Cyclosporine A", "setting": "[3]; [12]", "value": 0.5}, {"measurement": "D-value, Novobiocin", "setting": "[3]; [12]", "value": 0.57}, {"measurement": "D-value, Probenecid", "setting": "[3]; [12]", "value": 0.33}, {"measurement": "D-value, Verapamil", "setting": "[3]; [12]", "value": 0.02}, {"measurement": "D-value, Cyclosporin A", "setting": "[3]; [13]", "value": 0.83}, {"measurement": "D-value, Novobiocin", "setting": "[3]; [13]", "value": 0.57}, {"measurement": "D-value, Probenecid", "setting": "[3]; [13]", "value": 0.33}, {"measurement": "D-value, Verapamil", "setting": "[3]; [13]", "value": 0.12}, {"measurement": "D-value, +4° C.", "setting": "[3]; [13]", "value": 0.77}, {"measurement": "D-value, Cyclosporin A", "setting": "[3]; [14]", "value": 0.71}, {"measurement": "D-value, Novobiocin", "setting": "[3]; [14]", "value": 0.46}, {"measurement": "D-value, Probenecid", "setting": "[3]; [14]", "value": 0.18}, {"measurement": "D-value, Verapamil", "setting": "[3]; [14]", "value": 0.11}, {"measurement": "D-value, +4° C.", "setting": "[3]; [14]", "value": 0.75}, {"measurement": "D-value, Cyclosporin A", "setting": "[4]; Fluo-8 AM probe, No Wash", "value": 0.12}, {"measurement": "D-value, Novobiocin", "setting": "[4]; Fluo-8 AM probe, No Wash", "value": 0.13}, {"measurement": "D-value, Probenecid", "setting": "[4]; Fluo-8 AM probe, No Wash", "value": 0.13}, {"measurement": "D-value, Verapamil", "setting": "[4]; Fluo-8 AM probe, No Wash", "value": 0.076}, {"measurement": "D-value, +4° C.", "setting": "[4]; Fluo-8 AM probe, No Wash", "value": 0.15}, {"measurement": "D-value, Cyclosporin A", "setting": "[4]; Fluo-8 AM probe, Wash", "value": 0.14}, {"measurement": "D-value, Novobiocin", "setting": "[4]; Fluo-8 AM probe, Wash", "value": 0.16}, {"measurement": "D-value, Probenecid", "setting": "[4]; Fluo-8 AM probe, Wash", "value": 0.14}, {"measurement": "D-value, Verapamil", "setting": "[4]; Fluo-8 AM probe, Wash", "value": 0.14}, {"measurement": "D-value, +4° C.", "setting": "[4]; Fluo-8 AM probe, Wash", "value": 0.14}, {"measurement": "D-value, 4° C.", "setting": "[4]; kept on ice without inhibitor (Table 9)", "value": 0.83}, {"measurement": "D-value, Cyclosporine A", "setting": "[4]; [15]", "value": 0.13}, {"measurement": "D-value, Novobiocin", "setting": "[4]; [15]", "value": 0.15}, {"measurement": "D-value, Probenecid", "setting": "[4]; [15]", "value": 0.16}, {"measurement": "D-value, Verapamil", "setting": "[4]; [15]", "value": 0.15}, {"measurement": "Toxicity to the cells (MTT viability)", "setting": "[5]", "value": "not toxic"}]}
